Columns and labels:
Format in all cases: cell-based
[1] = test system: T47D (PI3Kα H1047R mutant) cells; assay: Inhibition of pAKT formation, alphaLISA SureFire Ultra AKT 1/2/3 (pS473), T47D cells; details: Homo sapiens, T47D, T47D (PI3Kα H1047R mutant) cells; inhibition of pAKT (pS473) formation; approximately one hour or 24 hours treatment; read-out: T47D pAKT (H1047R mutant) IC50
Method in brief: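 AKT Ser473 phosphorylation was quantified by alphaLISA SureFire Ultra after roughly 1 h or 24 h compound exposure at 37 °C. Cells were T47D (12,000/well in HBSS), treated with a 10-point 1:4 series starting at 10.4 μM. Percent of control used alpelisib background and DMSO reference, and IC50 came from four-parameter logistic fitting.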

[2] = test system: T47D (PI3Kα H1047R mutant) cells; assay: CellTiter-Glo 2.0 luminescent cell viability assay, 72 hours, T47D cells; details: Homo sapiens, T47D, 72 h, T47D (PI3Kα H1047R mutant) cells, CellTiter-Glo, approximately 72 hours; read-out: T47D (H1047R mutant) Viability IC50
Method in brief: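 Viability was measured by CellTiter-Glo 2.0 luminescence after approximately 72 h of compound exposure at 37° C. Plating was 1000 cells per well the day before dosing, with ten 1:4 dilutions from a 10 µM top concentration. Values as percent of vehicle were fitted by variable-slope log(inhibitor) regression to give IC50.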

[3] = test system: SKBR3 (PI3Kα wild type) cells; assay: CellTiter-Glo 2.0 luminescent cell viability assay, 72 hours, SKBR3 cells; details: Homo sapiens, SK-BR-3, 72 h, SKBR3 (PI3Kα wild type) cells, CellTiter-Glo, approximately 72 hours; read-out: SKBR3 (WT) Viability IC50
Method in brief: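 Viability measured via CTG luminescence following roughly 72 hours of compound exposure at 37° C. Dosing used a 10 um starting concentration diluted 1:4 over 10 points; percent-of-vehicle data fitted with a variable-slope four-parameter model for IC50.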

For Cc1cc([C@@H](C)Nc2ccccc2C(=O)O)c2nc(NC3CCC3)c(C#N)c(=O)n2c1 [Example 10-90, (R)-2-((1-(3-cyano-2-(cyclobutylamino)-7-methyl-4-oxo-4H-pyrido[1,2-a]pyrimidin-9-yl)ethyl)amino)benzoic acid], the IC50 [1] was 0.596 nM, the IC50 [2] was 82.4 nM and the IC50 [3] was > 10 µM.
Cc1cc([C@@H](C)Nc2ccccc2C(=O)O)c2nc(N3CCN(CC(F)F)CC3)c(C)c(=O)n2c1 [Example 10-91, (R)-2-((1-(2-(4-(2,2-difluoroethyl)piperazin-1-yl)-3,7-dimethyl-4-oxo-4H-pyrido[1,2-a]pyrimidin-9-yl)ethyl)amino)benzoic acid] was tested, and the IC50 [1] was 2.55 nM, the IC50 [2] was 82.5 nM and the IC50 [3] was > 10 µM.
In the case of Cc1cc([C@@H](C)Nc2ccccc2C(=O)O)c2nc(N3Cc4ccc(F)cc4C3)c(C#N)c(=O)n2c1 [Example 10-92, (R)-2-((1-(3-cyano-2-(5-fluoroisoindolin-2-yl)-7-methyl-4-oxo-4H-pyrido[1,2-a]pyrimidin-9-yl)ethyl)amino)benzoic acid], the IC50 [1] is reported as 1.71 nM, the IC50 [2] is reported as 82.8 nM and the IC50 [3] is reported as > 10 µM.
In the case of Cc1cc([C@@H](C)Nc2ccccc2C(=O)O)c2nc(N3CCN(c4ccc(F)cc4F)CC3)c(C)c(=O)n2c1 [Example 10-93, (R)-2-((1-(2-(4-(2,4-difluorophenyl)piperazin-1-yl)-3,7-dimethyl-4-oxo-4H-pyrido[1,2-a]pyrimidin-9-yl)ethyl)amino)benzoic acid], the IC50 [1] is reported as 4.3 nM, the IC50 [2] is reported as 83.2 nM and the IC50 [3] is reported as > 10 µM.
In the case of Cc1cc([C@@H](C)Nc2ccccc2C(=O)O)c2nc(N3CCN(c4ccc(C#N)cc4F)CC3)c(C#N)c(=O)n2c1 [Example 10-94, (R)-2-((1-(3-cyano-2-(4-(4-cyano-2-fluorophenyl)piperazin-1-yl)-7-methyl-4-oxo-4H-pyrido[1,2-a]pyrimidin-9-yl)ethyl)amino)benzoic acid], the IC50 [1] is reported as 2.02 nM, the IC50 [2] is reported as 83.6 nM and the IC50 [3] is reported as > 10 µM.
Cc1cc([C@@H](C)Nc2ccccc2C(=O)O)c2nc(N3CC4CCC3CC4)c(C#N)c(=O)n2c1 [Example 10-97, (R)-2-((1-(2-(2-azabicyclo[2.2.2]octan-2-yl)-3-cyano-7-methyl-4-oxo-4H-pyrido[1,2-a]pyrimidin-9-yl)ethyl)amino)benzoic acid] was tested, and the IC50 [1] was 2.04 nM, the IC50 [2] was 85.2 nM and the IC50 [3] was > 10 µM.
Cc1cc([C@@H](C)Nc2ccccc2C(=O)O)c2nc(N3CCN(c4ccccc4)CC3)c(C#N)c(=O)n2c1 [Example 10-98, (R)-2-((1-(3-cyano-7-methyl-4-oxo-2-(4-phenylpiperazin-1-yl)-4H-pyrido[1,2-a]pyrimidin-9-yl)ethyl)amino)benzoic acid] was tested, and the IC50 [1] was 2.12 nM, the IC50 [2] was 85.8 nM and the IC50 [3] was > 10 µM.
With Cc1cc([C@@H](C)Nc2ccccc2C(=O)O)c2nc(N3CC4C(C3)C4(F)F)c(C#N)c(=O)n2c1 (stereo partly drawn) [Example 10-100, 2-(((1R)-1-(3-cyano-2-(6,6-difluoro-3-azabicyclo[3.1.0]hexan-3-yl)-7-methyl-4-oxo-4H-pyrido[1,2-a]pyrimidin-9-yl)ethyl)amino)benzoic acid] the IC50 [1] was 3.82 nM, the IC50 [2] was 86.2 nM and the IC50 [3] was > 10 µM.
With Cc1cc([C@@H](C)Nc2ccccc2C(=O)O)c2nc(N3CCN(c4ccc(C#N)cc4C)CC3)c(C#N)c(=O)n2c1 [Example 10-101, (R)-2-((1-(3-cyano-2-(4-(4-cyano-2-methylphenyl)piperazin-1-yl)-7-methyl-4-oxo-4H-pyrido[1,2-a]pyrimidin-9-yl)ethyl)amino)benzoic acid] the IC50 [1] was 5.78 nM, the IC50 [2] was 86.8 nM and the IC50 [3] was > 10 µM.
For Cc1cc([C@@H](C)Nc2ccccc2C(=O)O)c2nc(N3CC4CC(C3)C4(F)F)c(C)c(=O)n2c1 [Example 10-102, 2-(((1R)-1-(2-(6,6-difluoro-3-azabicyclo[3.1.1]heptan-3-yl)-3,7-dimethyl-4-oxo-4H-pyrido[1,2-a]pyrimidin-9-yl)ethyl)amino)benzoic acid], the IC50 [1] was 3.71 nM, the IC50 [2] was 87 nM and the IC50 [3] was > 10 µM.
With Cc1cc([C@@H](C)Nc2ccccc2C(=O)O)c2nc(C3CCN(c4ccc(C#N)cc4)CC3)c(C#N)c(=O)n2c1 [Example 10-103, (R)-2-((1-(3-cyano-2-(1-(4-cyanophenyl)piperidin-4-yl)-7-methyl-4-oxo-4H-pyrido[1,2-a]pyrimidin-9-yl)ethyl)amino)benzoic acid] the IC50 [1] was 2.05 nM, the IC50 [2] was 87.2 nM and the IC50 [3] was 8.76 µM.
With Cc1cc([C@@H](C)Nc2ccccc2C(=O)O)c2nc(N3CCC4(CC4)C(F)(F)C3)c(C)c(=O)n2c1 [Example 10-107, (R)-2-((1-(2-(4,4-difluoro-6-azaspiro[2.5]octan-6-yl)-3,R7-dimethyl-4-oxo-4H-pyrido[1,2-a]pyrimidin-9-yl)ethyl)amino)benzoic acid] the IC50 [1] was 6.72 nM, the IC50 [2] was 92.5 nM and the IC50 [3] was > 10 µM.
For Cc1cc([C@@H](C)Nc2ccccc2C(=O)O)c2nc(N3CCC4(CC4)C(F)(F)C3)c(C#N)c(=O)n2c1 [Example 10-108, (R)-2-((1-(3-cyano-2-(4,4-difluoro-6-azaspiro[2.5]octan-6-yl)-7-methyl-4-oxo-4H-pyrido[1,2-a]pyrimidin-9-yl)ethyl)amino)benzoic acid], the IC50 [1] was 2.89 nM, the IC50 [2] was 93.6 nM and the IC50 [3] was > 10 µM.
Molecule Cc1cc([C@@H](C)Nc2ccccc2C(=O)O)c2nc(N3CCN(c4ccc(C#N)cc4)CC3C)c(C#N)c(=O)n2c1 (stereo partly drawn) [Example 10-109, 2-(((1R)-1-(3-cyano-2-(4-(4-cyanophenyl)-2-methylpiperazin-1-yl)-7-methyl-4-oxo-4H-pyrido[1,2-a]pyrimidin-9-yl)ethyl)amino)benzoic acid] has an IC50 [1] of 2.67 nM, an IC50 [2] of 93.7 nM and an IC50 [3] of 8.83 µM.
For Cc1cc([C@@H](C)Nc2ccccc2C(=O)O)c2nc(N3CCN(c4ccc(C#N)cc4)C(C)C3)c(C)c(=O)n2c1 (stereo partly drawn) [Example 10-110, 2-(((1R)-1-(2-(4-(4-cyanophenyl)-3-methylpiperazin-1-yl)-3,7-dimethyl-4-oxo-4H-pyrido[1,2-a]pyrimidin-9-yl)ethyl)amino)benzoic acid], the IC50 [1] was 1.05 nM, the IC50 [2] was 94.1 nM and the IC50 [3] was > 10 µM.
For Cc1cc([C@@H](C)Nc2ccccc2C(=O)O)c2nc(N3CCC4(CC3)COC4)c(C)c(=O)n2c1 [Example 10-111, (R)-2-((1-(3,7-dimethyl-4-oxo-2-(2-oxa-7-azaspiro[3.5]nonan-7-yl)-4H-pyrido[1,2-a]pyrimidin-9-yl)ethyl)amino)benzoic acid], the IC50 [1] was 4.82 nM, the IC50 [2] was 96.4 nM and the IC50 [3] was > 10 µM.
With Cc1cc([C@@H](C)Nc2ccccc2C(=O)O)c2nc(N3CCN(c4ncc(C#N)cn4)CC3)c(C#N)c(=O)n2c1 [Example 10-112, (R)-2-((1-(3-cyano-2-(4-(5-cyanopyrimidin-2-yl)piperazin-1-yl)-7-methyl-4-oxo-4H-pyrido[1,2-a]pyrimidin-9-yl)ethyl)amino)benzoic acid] the IC50 [1] was 6.23 nM, the IC50 [2] was 96.7 nM and the IC50 [3] was > 10 µM.
For Cc1cc([C@@H](C)Nc2ccccc2C(=O)O)c2nc(N3CCC(F)(F)CC3)c(Cl)c(=O)n2c1 [Example 10-114, (R)-2-((1-(3-chloro-2-(4,4-difluoropiperidin-1-yl)-7-methyl-4-oxo-4H-pyrido[1,2-a]pyrimidin-9-yl)ethyl)amino)benzoic acid], the IC50 [1] was 2.58 nM, the IC50 [2] was 98.5 nM and the IC50 [3] was > 10 µM.
With Cc1cc([C@@H](C)Nc2ccc(C)nc2C(=O)O)c2nc(NC3CCC3)c(C#N)c(=O)n2c1 [Example 10-115, (R)-3-((1-(3-cyano-2-(cyclobutylamino)-7-methyl-4-oxo-4H-pyrido[1,2-a]pyrimidin-9-yl)ethyl)amino)-6-methylpicolinic acid] the IC50 [1] was 58.4 nM, the IC50 [2] was 98.8 nM and the IC50 [3] was > 10 µM.
With COC1CCN(c2nc3c([C@@H](C)Nc4ccccc4C(=O)O)cc(C)cn3c(=O)c2C)CC1(F)F (stereo partly drawn) [Example 10-116, 2-(((1R)-1-(2-(3,3-difluoro-4-methoxypiperidin-1-yl)-3,7-dimethyl-4-oxo-4H-pyrido[1,2-a]pyrimidin-9-yl)ethyl)amino)benzoic acid] the IC50 [1] was 1.58 nM, the IC50 [2] was 100 nM and the IC50 [3] was > 10 µM.
With Cc1cc([C@@H](C)Nc2ccccc2C(=O)O)c2nc(N3CCN(C(=O)c4ccccc4)CC3)c(C)c(=O)n2c1 [Example 10-117, (R)-2-((1-(2-(4-benzoylpiperazin-1-yl)-3,7-dimethyl-4-oxo-4H-pyrido[1,2-a]pyrimidin-9-yl)ethyl)amino)benzoic acid] the IC50 [1] was 2.16 nM, the IC50 [2] was 101 nM and the IC50 [3] was 3.72 µM.
In the case of Cc1cc([C@@H](C)Nc2ccccc2C(=O)O)c2nc(C3CCN(c4ccc(C#N)cc4)CC3)c(C)c(=O)n2c1 [Example 10-120, (R)-2-((1-(2-(1-(4-cyanophenyl)piperidin-4-yl)-3,7-dimethyl-4-oxo-4H-pyrido[1,2-a]pyrimidin-9-yl)ethyl)amino)benzoic acid], the IC50 [1] is reported as 2.25 nM, the IC50 [2] is reported as 103 nM and the IC50 [3] is reported as > 10 µM.
In the case of COC1CCN(c2nc3c([C@@H](C)Nc4ccccc4C(=O)O)cc(C)cn3c(=O)c2C#N)CC1 [Example 10-123, (R)-2-((1-(3-cyano-2-(4-methoxypiperidin-1-yl)-7-methyl-4-oxo-4H-pyrido[1,2-a]pyrimidin-9-yl)ethyl)amino)benzoic acid], the IC50 [1] is reported as 2.39 nM, the IC50 [2] is reported as 104 nM and the IC50 [3] is reported as > 10 µM.
